Patent US20180353512A1, “COMBINATION THERAPIES FOR TREATING B-CELL MALIGNANCIES” (GILEAD SCIENCES, INC., priority 2015, published 2018)
Like-named read-outs stand apart in the source and are kept apart here.

Columns and labels:
Type in all cases: cell-based
OCI-LY10 cells = assay: CellTiter-Glo cell viability assay, four days (Example 1A); settings: for EC50: Homo sapiens; for growth of cell line: OCI-LY10, single agent
Description: (§1) In vitro anti-proliferative activity of agents was assessed using CellTiter-Glo™ Assay (Promega), which quantifies cellular ATP level. Test compounds were dissolved in DMSO to prepare 10 mM stock solutions. […] For drug combination studies, a two or three fold horizontal serial dilution pattern was used for Compound B and combined with Idelalisib using a two, three, or four fold vertical serial dilution pattern. […] The final DMSO concentration in the test media was 0.2%. Each combination used replicates of four plates to generate sufficient data for evaluation of synergy scores. […] The assay growth medium for all lines was RPMI supplemented with 20% FBS and […] penicillin-streptomycin. Seeding density was optimized for growth rate over 96 hours for each cell line and was between 10,000-30,000 cells per well of 96 well plates. After four days incubation with agents at 37° C./5% CO2, the CellTiter-Glo™ assay was performed following the manufacturer's protocol. Relative luminescence units were quantified using a Biotek Synergy luminometer.
(§2) Data from a plate was excluded if either Z′<0.5 or the growth of the cell lines was less than one doubling in the four day assay period. Z′ was calculated using the formula: Z′=[1−((3(σstau+σDMSO))/(|μDMSO−μstau|)] where σstau and σDMSO are the standard deviation of the 100% inhibited staurosporine and 0% inhibited DMSO control wells, respectively. μDMSO and μstau are the mean of the […] control wells, respectively. The raw Cell Titer Glo signal was normalized according to the following formula: [(raw value)−(100% inhibited staurosporine control)]/[(DMSO control value)−(100% inhibited staurosporine control)].
(§3) EC50 was determined using GraphPad Prism or Dose Response software by fitting the data to a four parameters variable slope model. […] For combination studies, the EC50 at each test article concentration was determined from graphs of the EC50 of one compound at a fixed dose of second compound. The EC50 shift was calculated by taking the ratio of the EC50 of the single agent by the EC50 at the maximum dose of the second agent.
(§4) Synergy was analyzed using the MacSynergy II program, which calculates a theoretical additive value for the drug combination that is based on the values generated by each drug alone using the Bliss Independence mathematical model. The Bliss independence model assumes that each drug acts independently. The theoretical additive effect for each compound is calculated and then subtracted from the actual effect. Synergy is defined by greater than expected effects while antagonism is defined by less than expected effects. In this example, a synergy volume greater than 50 was considered significant. The EC50 values determined in drug combination studies represent a single experiment run in quadruplicate and therefore may differ slightly from the single agent EC50 values.

Pfeiffer cells = assay: as above; settings: for EC50: Homo sapiens
Description: as §1, §2, §3, §4

Ri-1 cells = assay: as above; settings: for EC50: Ri-1, Ri-1; for growth of cell line: single agent
Description: as §1, §2, §3, §4

TMD-8 cells = assay: as above; settings: for EC50: Homo sapiens; for growth of cell line: single agent
Description: as §1, §2, §3, §4

JVM-13 cells = assay: ATPLite anti-proliferation assay (GI) and synergy score, 120 h
Description: (§5) The endpoint readout of the anti-proliferation assay was based upon quantitation of ATP as an indicator of viable cells. Cells were thawed from a liquid nitrogen preserved state. Once cells had been expanded and divided at their expected doubling times, screening began. Cells were seeded in growth media in black 384-well tissue culture treated plates at 500 cells per well (except where noted in Analyzer). Cells were equilibrated in assay plates via centrifugation and placed in incubators attached to the Dosing Modules at 37° C. for twenty-four hours before treatment. […] These Tzero (T0) plates were read using ultra-sensitive luminescence on Envision Plate Readers. Treated assay plates were incubated with the compound for one hundred twenty hours. After one hundred twenty hours, plates were developed for endpoint analysis using ATPLite. All data points were collected via automated processes; quality controlled; and analyzed using Horizon CombinatoRx proprietary software. Assay plates were accepted if they pass the following quality control standards: relative luciferase values were consistent throughout the entire experiment, Z-factor scores were greater than 0.6, untreated/vehicle controls behaved consistently on the plate.
(§6) Horizon Discovery utilized Growth Inhibition (GI) as a measure of cell viability. The cell viability of vehicle was measured at the time of dosing (T0) and after one hundred twenty hours (T120). A GI reading of 0% represented no growth inhibition—cells treated with compound and T120 vehicle signals were matched. […] A GI 200% represents complete death of all cells in the culture well. Compounds reaching an activity plateau of GI 200% were considered cytotoxic. Horizon CombinatoRx calculates GI by applying the following test and equation: […]
(§7) To measure combination effects in excess of Loewe additivity, Horizon Discovery has devised a scalar measure to characterize the strength of synergistic interaction termed the Synergy Score. The Synergy Score was calculated as:
(§8) Synergy Score=log fx log fyΣmax(0,Idata)(Idata−ILoewe)
(§9) The fractional inhibition for each component agent and combination point in the matrix was calculated relative to the median of all vehicle-treated control wells. The Synergy Score equation integrated the experimentally-observed activity volume at each point in the matrix in excess of a model surface numerically derived from the activity of the component agents using the Loewe model for additivity. Additional terms in the Synergy Score equation (above) were used to normalize for various dilution factors used for individual agents and to allow for comparison of synergy scores across an entire experiment. The inclusion of positive inhibition gating or an Idata multiplier removed noise near the zero effect level, and biased results for synergistic interactions at that occur at high activity levels.
(§10) The cell viability of vehicle was measured at the time of dosing (T0) and after 120 h (T120). […] To measure combination effects, excess of Loewe additivity was used to characterize the strength of synergistic interaction, termed the synergy score. The assay and synergy score analysis were performed in accordance with the protocol set forth in Example 1B above.

Mino cells = assay: as above
Description: as §5, §6, §7, §8, §9, §10

Rec-1 cells = assay: as above
Description: as §5, §6, §7, §8, §9, §10

[1] = OCI-Ly10, OCI-LY10, bound stated for three ABC-DLBCL cell lines, read-out: EC50, growth inhibition, single agent
[2] = Idelalisib 0 nM, read-out: EC50 of Compound B in Combination with Idelalisib
[3] = bound stated for three ABC-DLBCL cell lines, read-out: EC50, growth inhibition, single agent
[4] = TMD8, TMD-8, bound stated for three ABC-DLBCL cell lines, read-out: EC50, growth inhibition, single agent
[5] = Compound B 45 nM, read-out: EC50 of Idelalisib when Combined with Compound B

CC#CC(=O)N1CC[C@@H](n2c(=O)n(-c3ccc(Oc4ccccc4)cc3)c3c(N)ncnc32)C1 [Compound B, 6-amino-9-[(3R)-1-(2-butynoyl)-3-pyrrolidinyl]-7-(4-phenoxyphenyl)-7,9-dihydro-8H-purin-8-one]
EC50 (OCI-LY10 cells; [1]): < 26 nM | EC50 (OCI-LY10 cells; OCI-Ly10, OCI-LY-10, Idelalisib 0 nM, read-out: EC50 of Compound B in Combination with Idelalisib): 6 nM | EC50 (OCI-LY10 cells; OCI-Ly10, OCI-LY-10, Idelalisib 156 nM, read-out: EC50 of Compound B in Combination with Idelalisib): 3 nM | EC50 (OCI-LY10 cells; OCI-Ly10, OCI-LY-10, Idelalisib 625 nM, read-out: EC50 of Compound B in Combination with Idelalisib): 3 nM | growth of cell line (OCI-LY10 cells): inhibited the growth | Compound B EC50 shift (fold) (OCI-LY10 cells; OCI-LY-10, single agent EC50 / EC50 at maximum dose of Idelalisib): 2 fold | EC50 (Pfeiffer cells; [2]): > 10000 nM | Compound B EC50 shift (fold) (Pfeiffer cells; No EC50 shift observed at up to 2.5 μM): None^c | EC50 (Ri-1 cells; [2]): 5 nM | EC50 (Ri-1 cells; Idelalisib 156 nM, read-out: EC50 of Compound B in Combination with Idelalisib): 2 nM | EC50 (Ri-1 cells; Idelalisib 625 nM, read-out: EC50 of Compound B in Combination with Idelalisib): 2 nM | EC50 (Ri-1 cells; [3]): < 26 nM | growth of cell line (Ri-1 cells; Ri-1): inhibited the growth | Compound B EC50 shift (fold) (Ri-1 cells; Ri-1, single agent EC50 / EC50 at maximum dose of Idelalisib): 2.5 fold | EC50 (TMD-8 cells; TMD8, TMD-8, Idelalisib 0 nM, read-out: EC50 of Compound B in Combination with Idelalisib): 11 nM | EC50 (TMD-8 cells; TMD8, TMD-8, Idelalisib 156 nM, read-out: EC50 of Compound B in Combination with Idelalisib): 5 nM | EC50 (TMD-8 cells; TMD8, TMD-8, Idelalisib 625 nM, read-out: EC50 of Compound B in Combination with Idelalisib): 4 nM | EC50 (TMD-8 cells; [4]): < 26 nM | growth of cell line (TMD-8 cells; TMD-8): inhibited the growth | Compound B EC50 shift (fold) (TMD-8 cells; TMD-8, single agent EC50 / EC50 at maximum dose of Idelalisib): 2.75 fold | Max. Effect (% GI) (JVM-13 cells): 15 % GI | Max. Effect (% GI) (Mino cells): 35 % GI | Max. Effect (% GI) (Rec-1 cells): 111 % GI

CCC(Nc1ncnc2[nH]cnc12)c1nc2cccc(F)c2c(=O)n1-c1ccccc1 (stereo not drawn) [Idelalisib, 2-(1-((9H-Purin-6-yl)amino)propyl)-5-fluoro-3-phenylquinazolin-4(3H)-one]
EC50 (OCI-LY10 cells; OCI-Ly10, OCI-LY10, addition of Compound B at 6 nM, read-out: EC50 of idelalisib): 24 nM | EC50 (OCI-LY10 cells; OCI-Ly10, OCI-LY10, addition of Compound B at 12 nM, read-out: EC50 of idelalisib): 19 nM | EC50 (OCI-LY10 cells; OCI-Ly10, OCI-LY10, addition of Compound B at 25 nM, read-out: EC50 of idelalisib): 13 nM | EC50 (OCI-LY10 cells; [1]): < 210 nM | EC50 (OCI-LY10 cells; OCI-Ly10, OCI-LY10, without Compound B, read-out: EC50 of idelalisib): 122 nM | EC50 (OCI-LY10 cells; OCI-Ly10, OCI-LY-10, Compound B 0 nM, read-out: EC50 of Idelalisib when Combined with Compound B): 440 nM | EC50 (OCI-LY10 cells; OCI-Ly10, OCI-LY-10, Compound B 5 nM, read-out: EC50 of Idelalisib when Combined with Compound B): 38 nM | EC50 (OCI-LY10 cells; OCI-Ly10, OCI-LY-10, Compound B 15 nM, read-out: EC50 of Idelalisib when Combined with Compound B): 22 nM | EC50 (OCI-LY10 cells; OCI-Ly10, OCI-LY-10, Compound B 45 nM, read-out: EC50 of Idelalisib when Combined with Compound B): 5 nM | growth of cell line (OCI-LY10 cells): inhibited the growth | Idelalisib EC50 shift (fold) (OCI-LY10 cells; OCI-LY-10, single agent EC50 / EC50 at maximum dose of Compound B): 88 fold | EC50 (Pfeiffer cells; [5]): 174 nM | Idelalisib EC50 shift (fold) (Pfeiffer cells; single agent EC50 / EC50 at maximum dose of Compound B): 1 fold | EC50 (Ri-1 cells; Compound B 0 nM, read-out: EC50 of Idelalisib when Combined with Compound B): 442 nM | EC50 (Ri-1 cells; Compound B 5 nM, read-out: EC50 of Idelalisib when Combined with Compound B): 372 nM | EC50 (Ri-1 cells; Compound B 15 nM, read-out: EC50 of Idelalisib when Combined with Compound B): 372 nM | EC50 (Ri-1 cells; [5]): 372 nM | EC50 (Ri-1 cells; [3]): < 210 nM | growth of cell line (Ri-1 cells; Ri-1): inhibited the growth | Idelalisib EC50 shift (fold) (Ri-1 cells; Ri-1, single agent EC50 / EC50 at maximum dose of Compound B): 1.2 fold | EC50 (TMD-8 cells; TMD8, TMD8, addition of Compound B at 6 nM, read-out: EC50 of idelalisib): 108 nM | EC50 (TMD-8 cells; TMD8, TMD8, addition of Compound B at 12 nM, read-out: EC50 of idelalisib): 34 nM | EC50 (TMD-8 cells; TMD8, TMD8, addition of Compound B at 25 nM, read-out: EC50 of idelalisib): 24 nM | EC50 (TMD-8 cells; TMD8, TMD8, without Compound B, read-out: EC50 of idelalisib): 254 nM | EC50 (TMD-8 cells; TMD8, TMD-8, Compound B 0 nM, read-out: EC50 of Idelalisib when Combined with Compound B): 254 nM | EC50 (TMD-8 cells; TMD8, TMD-8, Compound B 5 nM, read-out: EC50 of Idelalisib when Combined with Compound B): 130 nM | EC50 (TMD-8 cells; TMD8, TMD-8, Compound B 15 nM, read-out: EC50 of Idelalisib when Combined with Compound B): 32 nM | EC50 (TMD-8 cells; TMD8, TMD-8, Compound B 45 nM, read-out: EC50 of Idelalisib when Combined with Compound B): 24 nM | EC50 (TMD-8 cells; [4]): < 210 nM | growth of cell line (TMD-8 cells; TMD-8): inhibited the growth | Idelalisib EC50 shift (fold) (TMD-8 cells; TMD-8, single agent EC50 / EC50 at maximum dose of Compound B): 10.6 fold | Max. Effect (% GI) (JVM-13 cells): 92 % GI | Max. Effect (% GI) (Mino cells): 34 % GI | Max. Effect (% GI) (Rec-1 cells): 163 % GI
